{"source": "patent US20060270611A1", "about": "“PEDIATRIC FORMULATION OF TOPIRAMATE” (priority 2005, published 2006)", "origin": "cited, not measured here", "conditions": "clinical trials of human epilepsy; adjunctive therapy or monotherapy", "data": [{"smiles": "CC1(C)O[C@H]2[C@H]3OC(C)(C)O[C@]3(COS(N)(=O)=O)OC[C@H]2O1", "note": "[Topiramate, 2,3:4,5-bis-O-(1-methylethylidene) β-D-fructopyranose sulfamate]", "values": [{"measurement": "efficacy in treating simple and complex partial seizures and secondarily generalized seizures", "value": "effective as adjunctive therapy or as monotherapy"}]}]}
